{"source": "patent US8951508B2", "about": "“Compound” (DSM IP Assets B.V., priority 2009, dated 2015)", "key": {"[1]": {"assay": "Comparative solubility of BMDBM in 1:1 C12-15 alkyl benzoate/UV-filter mixtures, HPLC of supernatant after 1 month at RT", "conditions": "for effect on solubility of BMDBM in C12-15 alkyl benzoate: conclusion in words", "protocol": "The solubility of BMDBM in a 1:1 (w/w) mixture of C12-15 alkyl benzoate and a polymeric, respectively a solid UV-filter (i.e. Polysilicone-15 (P-15), HY-B1, HY-B2, HY-AB, BEMT or Ethylhexyltriazone (EHT)) was determined by mixing 200 mg of BMDBM with 1000 mg of the 1:1 mixture and measuring the BMDBM concentration of the supernatant by HPLC after a storage period of 1 month at RT. Where necessary the mixture was centrifuged in order to obtain a clear supernatant."}, "[2]": {"conditions": "e.g. C12-15 alkyl benzoate or diisopropyl sebaceate; typical value; cited from earlier work"}, "[3]": {"assay": "Reduction of solvent necessary to dissolve solid UV-filter", "format": "physicochemical"}}}
{"smiles": "CCCCC(CC)COc1ccc(-c2nc(-c3ccc(OC)cc3)nc(-c3ccc(OCC(CC)CCCC)cc3O)n2)c(O)c1", "note": "(stereo not shown) [BEMT, bis-ethylhexyloxyphenol methoxyphenyl triazine]", "values": [{"measurement": "Solubility of BMDBM in C12-15 alkyl benzoate/UV-filter 1:1", "setting": "[1]; 200 mg BMDBM in 1000 mg 1:1 mixture, 1 month at RT, label = UV-filter in mixture", "result": 3, "unit": "wt.-%"}, {"measurement": "Solubility of BMDBM: Δ solubility", "setting": "[1]; 1:1 mixture versus C12-15 alkyl benzoate, label = UV-filter in mixture", "result": "−11", "unit": "wt.-%"}, {"measurement": "effect on solubility of BMDBM in C12-15 alkyl benzoate", "setting": "[1]", "result": "neither be enhanced"}, {"measurement": "Solubility of BMDBM: Δ solubility related to cosmetic solvent", "setting": "[1]; label = UV-filter in mixture", "result": "−4", "unit": "wt.-%"}]}
{"smiles": "COc1ccc(C(=O)CC(=O)c2ccc(C(C)(C)C)cc2)cc1", "note": "[BMDBM, butyl methoxydibenzoylmethane]", "values": [{"measurement": "solubility in the conventional cosmetic oils", "setting": "[2]", "result": "less than 20%"}, {"measurement": "Solubility of BMDBM in C12-15 alkyl benzoate", "setting": "[1]; reference value without UV-filter, repeated per column", "result": 14, "unit": "wt.-%"}, {"measurement": "amount of 1:1 (w/w) mixture of PG-UVB1 and diisopropyl sebacate needed to dissolve 0.5 g BMDBM", "setting": "[3]", "result": 1.4, "unit": "g"}, {"measurement": "amount of 1:1 (w/w) mixture of PG-UVB2 and C12-15 alkyl benzoate necessary to dissolve 0.5 g BMDBM", "setting": "[3]", "result": 1.5, "unit": "g"}, {"measurement": "amount of C12-15 alkyl benzoate necessary to solubilize 0.5 g BMDBM", "setting": "[3]", "result": 3.0, "unit": "g"}, {"measurement": "amount of diisopropyl sebacate necessary to solubilize 0.5 g BMDBM", "setting": "[3]", "result": 2.0, "unit": "g"}, {"measurement": "reduction of the cosmetic solvent necessary to dissolve BMDBM", "setting": "[3]; 1:1 (w/w) PG-UVB1/diisopropyl sebacate versus diisopropyl sebacate", "result": 65, "unit": "%"}, {"measurement": "reduction of the cosmetic solvent necessary to dissolve BMDBM", "setting": "[3]; 1:1 (w/w) PG-UVB2/C12-15 alkyl benzoate versus C12-15 alkyl benzoate", "result": 75, "unit": "%"}]}
{"smiles": "CCCCC(CC)COC(=O)c1ccc(Nc2nc(Nc3ccc(C(=O)OCC(CC)CCCC)cc3)nc(Nc3ccc(C(=O)OCC(CC)CCCC)cc3)n2)cc1", "note": "(stereo not shown) [EHT, Ethylhexyltriazone]", "values": [{"measurement": "effect on solubility of BMDBM in C12-15 alkyl benzoate", "setting": "[1]", "result": "neither be enhanced"}]}
